# Assay results as given in patent US12109327B2, “Scaffolds from self-assembling tetrapeptides support 3D spreading, osteogenic differentiation and angiogenesis of mesenchymal stem cells” (KING ABDULLAH UNIVERSITY OF SCIENCE AND TECHNOLOGY, priority 2020, dated 2024).
# Non-standard residues stand in square brackets, D forms with d. Cha = N[C@@H](CC1CCCCC1)C(=O)O
# Assays:
# [1] = Vial inversion test: gelation time and critical gelation concentration; format: physicochemical; details: for critical gelation concentration (CGC): aqueous solution, 1× PBS
# Procedure: In one embodiment, an instant hydrogel formation can be observed when PBS buffer is added to the peptide solution. In one embodiment, the gelation time is determined using a vial inversion test performed at different peptide concentrations in 1×PBS to meet physiological conditions. FIG. 13 compares the gelation time of IVFK and IVZK at different concentration.
# The lyophilized peptide powders were dissolved in Milli-Q® water by vortexing into a clear solution at room temperature. Then, 10× phosphate-buffered saline (PBS) was added to the aqueous peptide solution at a final volume ratio of peptide solution to 10×PBS of 9:1. The vial inversion test was performed with different peptide concentrations to find the critical gelation concentration (CGC). To study the spatial structure of the peptide solution during the assembly process, two-dimensional (2D) NMR was performed using Bruker Avance III 600 MHz. Furthermore, scanning electron microscopy (SEM) was performed to visualize the morphology of the self-assembled nanofibers.
# BM-MSCs [2] = assay: Quantitative RT-PCR of osteogenic genes; format: cell-based, human
# Procedure: Real-time polymerase chain reaction (PCR) values of the BM-MSC gene expressions of the bone morphogenetic protein (BMP-2) (FIG. 37), bone sialoprotein 2 (IBSP) (FIG. 35), osteopontin (OPN) (FIG. 38), osterix (OSX) (FIG. 39), and RUNX2 (FIG. 36) are evaluated after 30 days of culture. […] In FIGS. 35-39, * mens p<0.05 and ** means p<0.001, indicating statistical significance.
# The BM-MSCs were cultured on different scaffolds with an osteogenic medium for 4 weeks. Total RNA was extracted using the TRIzol™ reagent. RNA concentration and purity were measured using a NanoDrop® 8000 spectrophotometer (Thermo Fisher®). Complementary DNA (cDNA) was synthesized using the ImProm-II Reverse Transcription System. Primer sequences were taken from previously published studies and are summarized in below. Relative quantification was performed using the comparative CT (2-ΔΔCT) and normalized against glyceraldehyde 3-phosphate dehydrogenase (GAPDH), which was used as a housekeeping gene to calculate the fold change in gene expression. BM-MSCs on a 2D culture using basal media were used as controls.
# BM-MSCs [3] = assay: Osteocalcin immunostaining, confocal microscopy; format: cell-based, human
# Source text: (§1) In one embodiment, the BM-MSCs differentiate to the osteogenic lineage. The expression of osteocalcin is stained and imaged after 3 weeks of culture in osteogenic medium using confocal microscopy, as shown in FIG. 33. FIG. 33 is confocal images showing the expression of osteocalcin stained in green, and the cell nuclei stained in blue using DAPI. The scale bar in FIG. 33 is 100 μm. […] Additionally, the levels of alkaline phosphatase (ALP), an early osteogenic marker expressed by osteoblast cells, are also measured to confirm the commitment of BM-MSCs toward the osteogenic lineage. […] Furthermore, the ALP activity increased with time during the initial 2 weeks as an indicator of osteogenic differentiation. In FIG. 34, * means p<0.05, indicating statistical significance.
# Immunostaining was performed after each time point of culture. Briefly, cells were fixed by 4% paraformaldehyde solution for 30 min and incubated in a cold cytoskeleton buffer (3 mM MgCl2, 300 mM sucrose, and 0.5% Triton X-100 in PBS solution) for 5 min to permeabilize the membranes of the cells. The permeabilized cells were incubated in a blocking buffer solution, 5% fetal bovine serum (FBS), 0.1% Tween-20, and 0.02% […] in PBS for 30 min. […]
# [4] = Oscillatory rheological test of peptide hydrogel stiffness (storage modulus G′); format: physicochemical; details: for Storage modulus: 1 rad/s, 0.1% strain
# Procedure: Therefore, in one embodiment, the mechanical stiffness of each peptide hydrogel is assessed by the storage modulus (G′) at different concentrations.
# The oscillatory rheological test was performed to determine the mechanical properties of the peptide hydrogels. The peptide hydrogels were measured on a TA Ares G2 rheometer with an 8 mm parallel-plate geometry and a 1.5 mm gap distance at a temperature of 22° C. All of the hydrogels were made inside a Sigmacote®-coated glass ring with 9 mm inner diameter 19 h prior to measurement. Six replicates with a volume of 150 μL were prepared for each sample. […]
# MSCs = assay: SEM of cell-matrix interaction; format: cell-based, human; details: after 14 days of culture
# Procedure: Scale bars are 5 and 10 μm, in the left and right panels respectively.
# SEM was also used to determine the cell-matrix interaction. First, the cells encapsulated in hydrogels were fixed in 2.5% glutaraldehyde for overnight (4° C.) and then washed using PBS. The samples were subsequently incubated in 1% osmium tetroxide for one hour and washed with water. Afterwards, the dehydration was done by immersing them in increasing concentrations of ethanol: 30, 50, 70, 90 and 100%, 15 min each step. Then, the samples were processed in critical point dryer. The dried samples were then mounted and coated with 5 nm Ir thickness.
# HUVECs = assay: In vitro angiogenesis study; format: cell-based, human
# Procedure: When bone deficiency occurs, it often causes blood vessel damage. Blood vessels provide the necessary components to repair the region of bone defects by transferring oxygen and nutrients.^107, 108 In one embodiment, the capability of IVFK and IVZK hydrogels to support angiogenesis is also evaluated using HUVECs and compared with collagen, which is an essential component of the ECM and is known to support the angiogenesis of endothelial cells,^23 because the capillary system is a crucial component in bone regeneration. Viability of HUVECs in IVZK scaffold after culturing for 24 h can be observed the bright field image as shown in FIG. 45 and confocal images as shown in FIG. 46. In FIG. 46, live cells are stained in green by Calcein-AM, while dead cells are stained red by Ethidium homodimer. In FIGS. 45 and 46, the scale bar is 100 μm. Furthermore, the angiogenesis ability of IVZK scaffold is also measured by the vessels junctions (FIG. 48), number of nodes (FIG. 49) and, in total vessels length (FIG. 47) for 5 different microscopic pictures. […] In FIG. 50, the scale bar is 100 μm.
# Peptide hydrogel or collagen was placed in a 24-well plate, and human umbilical vein endothelial cells (HUVECs) at 40,000 cells/well were added on top of the peptide gel or collagen. Cells were cultured in endothelial growth media for 24 h. Cells were then investigated using an inverted microscope, and images were analyzed by ImageJ using the Angiogenesis Analyzer.
# BM-MSCs [5] = assay: Alkaline phosphatase (ALP) assay; format: cell-based, human
# Source text: as §1
# Alkaline phosphatase (ALP) was measured after 1 and 2 weeks of culture using an alkaline phosphatase substrate kit. At the end of each culture time, the scaffolds were washed by PBS and cells were lysed using 1% Triton X-100. Then, 80 μL of the cell lysate mixture was added to 50 μL of the para-nitrophenylphosphate (pNPP) substrate (5 mM) and incubated at room temperature for 2 h. The reaction was inhibited by the addition of a stop solution, and the absorbance was measured at 405 nm using a multimode plate reader (PHERAstar® FS, Germany).
# BM-MSCs [6] = assay: Alamar Blue cell viability assay; format: cell-based, human; details: compared to controls (2D and Matrigel)
# Procedure: In one embodiment, the hydrogels are screened for biocompatibility, cell attachment, and proliferation. Different concentrations of the peptides are tested for their biocompatibility of the cells within the constructs. […] Control is the cells incubated for 48 h without peptides.
# The hBM-MSCs were cultured in T75 flasks and incubated in a CO2 incubator maintained at 37° ° C. with 5% CO2. Culture media were replaced every 2-3 days until the cells reached 80% confluency. Confluent cells were trypsinized and subcultured, and cells at passage 3-6 were used for the study. For the 3D culture, different peptides were sterilized by exposure to UV light for 30 min. Then, 200 μL of 3D constructs in the 48-well plate was formed by mixing the peptide solution (IVZK=3 mg/mL (5.42 mM); IVFK=4 mg/mL (7.31 mM)) with 40,000 cells suspended in 2×PBS. Culture plates were incubated for 5 min at 37° C., and the complete medium was added carefully to the culture plates. […] The morphology, cell proliferation, and mineralization of the cells in each scaffold were analyzed and compared. […]
# A volume of 10 μL of Alamar blue stock solution was added to 100 μL of media in each well. […] The fluorescence was measured at an excitation wavelength of 530 nm, and the emission at 590 nm. The viability percentage was calculated against the control (2D).
# BM-MSCs [7] = assay: Alizarin red staining of mineralization; format: cell-based, human
# Source text: Alizarin red staining (ARS) is used to detect calcium deposition. The BM-MSCs cultured in the different scaffolds in the osteogenic medium are stained by Alizarin red to confirm the mineralization process during osteogenic differentiation (FIGS. 4b and S11b). […] The scale bar in FIGS. 31 and 32 is 100 μm. […] This indicates the presence of calcium deposits.
# After 14 days of culture, the media were removed and the cells were washed three times with PBS, fixed with 4% paraformaldehyde, and incubated for 15 min at room temperature.
# After 14 days of culture, the media was removed and then, the cells were washed three times with PBS and then fixed with 4% paraformaldehyde and the cells incubated for 15 minutes at room temperature. Then, the cells were washed three times with Milli-Q® water. Then the Milli-Q® water was removed and 1 mL of 40 mM Alizarin Red Staining (pH=4.2) was added to each well. The scaffolds were incubated at room temperature for 20-30 min with gentle shaking. […] For the quantification of Alizarin Red Staining, 100 μL of 10% acetic acid was added to each well in a 48-well plate and incubated at room temperature for 30 minutes with gentle shaking. […] Finally, 50 μL of each tube was transferred to a 96-well plate, and the absorbance at 405 nm was read with a plate reader (PHERAstar® FS, Germany)
# [8] = 24 h, versus collagen positive control
# [9] = hydrogel around 20 kPa (4 mg/mL) versus 50 kPa (8 mg/mL)
substance,measurement,setting,value
Ac-Ile-Val-Phe-Lys-NH2 (Ac-IVFK-NH2) [aromatic self-assembling tetrapeptide forming hydrogel scaffold],critical gelation concentration (CGC),[1],2 mg/mL
same,expression of osteogenic genes OPN and BMP-2,BM-MSCs [2]; 20 kPa hydrogel versus 50 kPa scaffold,able to support cell differentiation much better than the 50 kPa scaffold
same,IBSP gene expression level,BM-MSCs [2]; after 30 days of culture,highest
same,OPN gene expression,BM-MSCs [2]; after 30 days of culture,upregulated
same,OSX expression level,BM-MSCs [2]; after 30 days of culture,low
same,Runx2 gene expression,BM-MSCs [2]; after 30 days of culture,higher
same,osteocalcin expression,BM-MSCs [3]; 3 weeks in osteogenic medium,comparable to those cultured in the collagen control group
same,osteocalcin expression,BM-MSCs [3]; 20 kPa scaffold compared to the others,more intense
same,stiffness,[4]; peptide concentration 4 mg/mL,around 20 kPa
same,stiffness,[4]; peptide concentration 8 mg/mL,~50 kPa
same,Storage modulus,[4]; peptide hydrogel 2 mg/mL,0.54 ± 0.06 kPa
same,Storage modulus,[4]; peptide hydrogel 3 mg/mL,7.03 ± 0.19 kPa
same,Storage modulus,[4]; peptide hydrogel 4 mg/mL,23.40 ± 0.88 kPa
same,Storage modulus,[4]; peptide hydrogel 6 mg/mL,35.79 ± 0.95 kPa
same,Storage modulus,[4]; peptide hydrogel 8 mg/mL,51.79 ± 4.73 kPa
same,cell morphology by SEM,MSCs,elongated spindlelike morphology
same,junctions,HUVECs; [8],no significant difference
same,nodes,HUVECs; [8],no significant difference
same,total length of tubes,HUVECs; [8],no significant difference
same,network formation of HUVECs,HUVECs; after 24 h of culture,forms dense network structures
same,ALP activity,"BM-MSCs [5]; after 7 days in osteogenic medium, versus collagen, p<0.05",Significantly higher ALP activity
same,ALP release,BM-MSCs [5]; [9],higher ALP release than that at 50 kPa
same,cell growth (Alamar Blue),BM-MSCs [6],significant increase in cell growth compared to both controls
same,calcium content (Alizarin red-S quantification),BM-MSCs [7]; [9],significantly higher calcium content than that at 50 kPa
same,Alizarin red-S (ARS) staining of mineral deposits,"BM-MSCs [7]; osteogenic medium, compared to the other scaffolds",most intense ARS staining
"Ac-Ile-Val-Cha-Lys-NH2 (Ac-IV[Cha]K-NH2; not fully specified; printed as Ac-Ile-Val-Cha-Lys-NH2) [IVZK, nonaromatic self-assembling tetrapeptide (Z = cyclohexylalanine) forming hydrogel scaffold]",critical gelation concentration (CGC),[1],2 mg/mL
same,gelation time,"[1]; different peptide concentrations in 1×PBS, IVZK versus IVFK","less time to form the hydrogel, compared to IVFK"
same,OPN gene expression,BM-MSCs [2]; after 30 days of culture,downregulated
same,"G′ value, IVZK versus IVFK",[4]; at the same concentration,higher G′ value compared to IVFK
same,Storage modulus,[4]; peptide hydrogel 2 mg/mL,10.00 ± 0.12 kPa
same,Storage modulus,[4]; peptide hydrogel 3 mg/mL,17.21 ± 1.38 kPa
same,Storage modulus,[4]; peptide hydrogel 4 mg/mL,29.77 ± 1.19 kPa
same,Storage modulus,[4]; peptide hydrogel 6 mg/mL,43.03 ± 2.81 kPa
same,Storage modulus,[4]; peptide hydrogel 8 mg/mL,75.21 ± 4.08 kPa
same,cell morphology by SEM,MSCs,elongated spindlelike morphology
